Source: patent US20110039721A1, “METHOD FOR PREDICTION ABOUT CARCINOGENICITY OF SUBSTANCE IN RODENT” (Chemicals Evaluation and Research Institute, priority 2007, published 2011)

Experiments:
[1] = tested on: mRNA expressed from the genes (A) to (D) in rat liver; assay: Behavior of genes (mRNA expression level, oligo-DNA microarray) in rat liver after 28-day oral administration; assay type: in vivo
Outline: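 Male F344 SPF rats, 5 weeks old, four per group, received carcinogens, non-carcinogens or solvent vehicle by oral gavage once daily for 28 days. Liver total RNA was then extracted. Changes of ≥1.5-fold or ≤1/1.5 versus vehicle control, in a consistent direction across carcinogens, counted as significant.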

[2] = tested on: liver; settings: in vivo; cited from earlier work
[3] = tested on: rodent; settings: in vivo; cited from earlier work
[4] = gene group (A), Unigene No. Rn.144554
[5] = gene group (A), Unigene No. Rn.167075
[6] = gene group (A), Unigene No. Rn.5834
[7] = gene group (A), Unigene No. Rn.9836
[8] = gene group (B), Unigene No. Rn.1430
[9] = gene group (B), Unigene No. Rn.19329
[10] = gene group (B), Unigene No. Rn.21240
[11] = gene group (C), Unigene No. Rn.106184
[12] = gene group (C), Unigene No. Rn.108075
[13] = gene group (C), Unigene No. Rn.11766
[14] = gene group (C), Unigene No. Rn.118529
[15] = gene group (C), Unigene No. Rn.119024
[16] = gene group (C), Unigene No. Rn.120914
[17] = gene group (C), Unigene No. Rn.123063
[18] = gene group (C), Unigene No. Rn.143213
[19] = gene group (C), Unigene No. Rn.144946
[20] = gene group (C), Unigene No. Rn.14744
[21] = gene group (C), Unigene No. Rn.1647
[22] = gene group (C), Unigene No. Rn.164817
[23] = gene group (C), Unigene No. Rn.167685
[24] = gene group (C), Unigene No. Rn.185941
[25] = gene group (C), Unigene No. Rn.18728
[26] = gene group (C), Unigene No. Rn.201760
[27] = gene group (C), Unigene No. Rn.23969
[28] = gene group (C), Unigene No. Rn.24561
[29] = gene group (C), Unigene No. Rn.43232
[30] = gene group (C), Unigene No. Rn.4620
[31] = gene group (C), Unigene No. Rn.9757
[32] = gene group (C), Unigene No. Rn.9779
[33] = gene group (C), Unigene No. Rn.9862
[34] = gene group (D), Unigene No. Rn.9939

Cl[C@H]1[C@H](Cl)[C@@H](Cl)[C@@H](Cl)[C@H](Cl)[C@H]1Cl [TS057, Lindane]
+: Behavior of gene caused by administration of chemical substance, Gene No. 533 ([1]; rat, in vivo) | Behavior of gene caused by administration of chemical substance, Gene No. 1131 ([1]; rat, in vivo) | Behavior of gene caused by administration of chemical substance, Gene No. 6026 ([1]; rat, in vivo) | Behavior of gene caused by administration of chemical substance, Gene No. 6303 ([1]; rat, in vivo)
Cr−: Liver carcinogenicity [2]
C−: Carcinogenicity [3]
−: Behavior of gene caused by administration of chemical substance, Gene No. 154 ([1]; rat, in vivo) | Behavior of gene caused by administration of chemical substance, Gene No. 725 ([1]; rat, in vivo) | Behavior of gene caused by administration of chemical substance, Gene No. 813 ([1]; rat, in vivo) | Behavior of gene caused by administration of chemical substance, Gene No. 893 ([1]; rat, in vivo) | Behavior of gene caused by administration of chemical substance, Gene No. 1119 ([1]; rat, in vivo) | Behavior of gene caused by administration of chemical substance, Gene No. 1163 ([1]; rat, in vivo) | Behavior of gene caused by administration of chemical substance, Gene No. 1334 ([1]; rat, in vivo) | Behavior of gene caused by administration of chemical substance, Gene No. 1494 ([1]; rat, in vivo) | Behavior of gene caused by administration of chemical substance, Gene No. 1562 ([1]; rat, in vivo) | Behavior of gene caused by administration of chemical substance, Gene No. 1741 ([1]; rat, in vivo) | Behavior of gene caused by administration of chemical substance, Gene No. 1993 ([1]; rat, in vivo) | Behavior of gene caused by administration of chemical substance, Gene No. 2026 ([1]; rat, in vivo) | Behavior of gene caused by administration of chemical substance, Gene No. 2045 ([1]; rat, in vivo) | Behavior of gene caused by administration of chemical substance, Gene No. 2203 ([1]; rat, in vivo) | Behavior of gene caused by administration of chemical substance, Gene No. 2494 ([1]; rat, in vivo) | Behavior of gene caused by administration of chemical substance, Gene No. 2546 ([1]; rat, in vivo) | Behavior of gene caused by administration of chemical substance, Gene No. 3776 ([1]; rat, in vivo) | Behavior of gene caused by administration of chemical substance, Gene No. 3929 ([1]; rat, in vivo) | Behavior of gene caused by administration of chemical substance, Gene No. 4095 ([1]; rat, in vivo) | Behavior of gene caused by administration of chemical substance, Gene No. 4218 ([1]; rat, in vivo) | Behavior of gene caused by administration of chemical substance, Gene No. 4846 ([1]; rat, in vivo) | Behavior of gene caused by administration of chemical substance, Gene No. 4973 ([1]; rat, in vivo) | Behavior of gene caused by administration of chemical substance, Gene No. 5600 ([1]; rat, in vivo) | Behavior of gene caused by administration of chemical substance, Gene No. 5634 ([1]; rat, in vivo) | Behavior of gene caused by administration of chemical substance, Gene No. 5726 ([1]; rat, in vivo) | Behavior of gene caused by administration of chemical substance, Gene No. 5878 ([1]; rat, in vivo) | Behavior of gene caused by administration of chemical substance, Gene No. 6182 ([1]; rat, in vivo) | Behavior of gene caused by administration of chemical substance, Gene No. 6620 ([1]; rat, in vivo) | Behavior of gene caused by administration of chemical substance, Gene No. 6742 ([1]; rat, in vivo)

Nc1ccc(N)c(Cl)c1.O=S(=O)(O)O [TS058, 2-Chloro-p-phenylenediamine SO4]
+: Behavior of gene caused by administration of chemical substance, Gene No. 2045 [1, 9] | Behavior of gene caused by administration of chemical substance, Gene No. 1163 [1, 13] | Behavior of gene caused by administration of chemical substance, Gene No. 154 [1, 24] | Behavior of gene caused by administration of chemical substance, Gene No. 2494 [1, 27] | Behavior of gene caused by administration of chemical substance, Gene No. 2546 [1, 28] | Behavior of gene caused by administration of chemical substance, Gene No. 1119 [1, 31] | Behavior of gene caused by administration of chemical substance, Gene No. 5634 [1, 33]
C−: Carcinogenicity [3]
−: Behavior of gene caused by administration of chemical substance, Gene No. 4846 [1, 4] | Behavior of gene caused by administration of chemical substance, Gene No. 2026 [1, 5] | Behavior of gene caused by administration of chemical substance, Gene No. 4218 [1, 5] | Behavior of gene caused by administration of chemical substance, Gene No. 6182 [1, 6] | Behavior of gene caused by administration of chemical substance, Gene No. 5600 [1, 7] | Behavior of gene caused by administration of chemical substance, Gene No. 1494 [1, 8] | Behavior of gene caused by administration of chemical substance, Gene No. 2203 [1, 10] | Behavior of gene caused by administration of chemical substance, Gene No. 533 [1, 11] | Behavior of gene caused by administration of chemical substance, Gene No. 725 [1, 12] | Behavior of gene caused by administration of chemical substance, Gene No. 4973 [1, 14] | Behavior of gene caused by administration of chemical substance, Gene No. 4095 [1, 15] | Behavior of gene caused by administration of chemical substance, Gene No. 1334 [1, 16] | Behavior of gene caused by administration of chemical substance, Gene No. 6620 [1, 16] | Behavior of gene caused by administration of chemical substance, Gene No. 6303 [1, 17] | Behavior of gene caused by administration of chemical substance, Gene No. 5878 [1, 18] | Behavior of gene caused by administration of chemical substance, Gene No. 1131 [1, 19] | Behavior of gene caused by administration of chemical substance, Gene No. 1562 [1, 20] | Behavior of gene caused by administration of chemical substance, Gene No. 1741 [1, 21] | Behavior of gene caused by administration of chemical substance, Gene No. 893 [1, 22] | Behavior of gene caused by administration of chemical substance, Gene No. 6026 [1, 23] | Behavior of gene caused by administration of chemical substance, Gene No. 1993 [1, 25] | Behavior of gene caused by administration of chemical substance, Gene No. 813 [1, 26] | Behavior of gene caused by administration of chemical substance, Gene No. 3776 [1, 29] | Behavior of gene caused by administration of chemical substance, Gene No. 3929 [1, 30] | Behavior of gene caused by administration of chemical substance, Gene No. 6742 [1, 32] | Behavior of gene caused by administration of chemical substance, Gene No. 5726 [1, 34]
Cr−: Liver carcinogenicity [2]

Cc1cc(N)ccc1N.O=S(=O)(O)O [TS060, 2,5-Toluenediamine SO4]
−: Behavior of gene caused by administration of chemical substance, Gene No. 4846 [1, 4] | Behavior of gene caused by administration of chemical substance, Gene No. 2026 [1, 5] | Behavior of gene caused by administration of chemical substance, Gene No. 4218 [1, 5] | Behavior of gene caused by administration of chemical substance, Gene No. 6182 [1, 6] | Behavior of gene caused by administration of chemical substance, Gene No. 5600 [1, 7] | Behavior of gene caused by administration of chemical substance, Gene No. 1494 [1, 8] | Behavior of gene caused by administration of chemical substance, Gene No. 2045 [1, 9] | Behavior of gene caused by administration of chemical substance, Gene No. 2203 [1, 10] | Behavior of gene caused by administration of chemical substance, Gene No. 533 [1, 11] | Behavior of gene caused by administration of chemical substance, Gene No. 725 [1, 12] | Behavior of gene caused by administration of chemical substance, Gene No. 4973 [1, 14] | Behavior of gene caused by administration of chemical substance, Gene No. 4095 [1, 15] | Behavior of gene caused by administration of chemical substance, Gene No. 1334 [1, 16] | Behavior of gene caused by administration of chemical substance, Gene No. 6620 [1, 16] | Behavior of gene caused by administration of chemical substance, Gene No. 6303 [1, 17] | Behavior of gene caused by administration of chemical substance, Gene No. 5878 [1, 18] | Behavior of gene caused by administration of chemical substance, Gene No. 1562 [1, 20] | Behavior of gene caused by administration of chemical substance, Gene No. 1741 [1, 21] | Behavior of gene caused by administration of chemical substance, Gene No. 6026 [1, 23] | Behavior of gene caused by administration of chemical substance, Gene No. 154 [1, 24] | Behavior of gene caused by administration of chemical substance, Gene No. 1993 [1, 25] | Behavior of gene caused by administration of chemical substance, Gene No. 813 [1, 26] | Behavior of gene caused by administration of chemical substance, Gene No. 2494 [1, 27] | Behavior of gene caused by administration of chemical substance, Gene No. 2546 [1, 28] | Behavior of gene caused by administration of chemical substance, Gene No. 3776 [1, 29] | Behavior of gene caused by administration of chemical substance, Gene No. 1119 [1, 31] | Behavior of gene caused by administration of chemical substance, Gene No. 6742 [1, 32] | Behavior of gene caused by administration of chemical substance, Gene No. 5726 [1, 34]
Cr−: Liver carcinogenicity [2]
C−: Carcinogenicity [3]
+: Behavior of gene caused by administration of chemical substance, Gene No. 1163 [1, 13] | Behavior of gene caused by administration of chemical substance, Gene No. 1131 [1, 19] | Behavior of gene caused by administration of chemical substance, Gene No. 893 [1, 22] | Behavior of gene caused by administration of chemical substance, Gene No. 3929 [1, 30] | Behavior of gene caused by administration of chemical substance, Gene No. 5634 [1, 33]
